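Exposure lasted 48 hours, with cells grown in 96-well plates and compounds tested at five concentrations. GI50 is the concentration that inhibits growth by half. At the TGI there is no net growth.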
What was measured:
Test in all cases: NCI anticancer screen, dose series, 48 h
M14 melanoma = tested on: M14 melanoma
SNB-19 CNS = tested on: SNB-19 CNS
K-562 leukemia = tested on: K-562 leukemia
TK-10 renal = tested on: TK-10 renal
NCI/ADR-RES ovarian = tested on: NCI/ADR-RES ovarian
SK-MEL-5 melanoma = tested on: SK-MEL-5 melanoma
SK-MEL-2 melanoma = tested on: SK-MEL-2 melanoma
MDA-MB-231 breast = tested on: MDA-MB-231 breast
HT29 colon = tested on: HT29 colon
MDA-MB-435 = tested on: MDA-MB-435

O=C1Nc2ccc(F)cc2/C1=C/c1ccc[nH]1
GI50 (M14 melanoma): > 25 µM | TGI (M14 melanoma): > 25 µM | GI50 (SNB-19 CNS): > 25 µM | TGI (SNB-19 CNS): > 25 µM | GI50 (K-562 leukemia): > 25 µM | TGI (K-562 leukemia): > 25 µM | GI50 (TK-10 renal): 14.4 µM | TGI (TK-10 renal): > 25 µM | GI50 (NCI/ADR-RES ovarian): > 25 µM | TGI (NCI/ADR-RES ovarian): > 25 µM | GI50 (SK-MEL-5 melanoma): > 25 µM | TGI (SK-MEL-5 melanoma): > 25 µM | GI50 (SK-MEL-2 melanoma): > 25 µM | TGI (SK-MEL-2 melanoma): > 25 µM | GI50 (MDA-MB-231 breast): 7.65 µM | TGI (MDA-MB-231 breast): > 25 µM | GI50 (HT29 colon): > 25 µM | TGI (HT29 colon): > 25 µM | GI50 (MDA-MB-435): > 25 µM | TGI (MDA-MB-435): > 25 µM

C[C@]12CC[C@@H]3c4cc(OCC(F)(F)F)c(O)cc4/C(=N/O)C[C@H]3[C@@H]1CC[C@@H]2O
GI50 (M14 melanoma): 0.0513 µM | TGI (M14 melanoma): 16.9 µM | TGI (SNB-19 CNS): > 63.1 µM | GI50 (K-562 leukemia): 0.0213 µM | TGI (TK-10 renal): > 100 µM | GI50 (NCI/ADR-RES ovarian): 0.0392 µM | TGI (NCI/ADR-RES ovarian): 2.49 µM | TGI (SK-MEL-5 melanoma): 12.5 µM | TGI (SK-MEL-2 melanoma): 0.852 µM | TGI (MDA-MB-231 breast): 1.5 µM | TGI (HT29 colon): 13.2 µM | TGI (MDA-MB-435): 0.0465 µM

CCn1c(SCc2ccc(C)cc2)nnc1-c1nn(-c2ccc(Cl)cc2Cl)c(-c2ccc(Cl)cc2)c1C
GI50 (M14 melanoma): 1.99 µM | TGI (M14 melanoma): 10.8 µM | GI50 (SNB-19 CNS): 2.3 µM | TGI (SNB-19 CNS): 13.3 µM | GI50 (K-562 leukemia): 0.836 µM | TGI (K-562 leukemia): 10.4 µM | GI50 (TK-10 renal): 2.61 µM | TGI (TK-10 renal): 10.9 µM | GI50 (NCI/ADR-RES ovarian): 3.54 µM | TGI (NCI/ADR-RES ovarian): 14.6 µM | GI50 (SK-MEL-5 melanoma): 1.4 µM | TGI (SK-MEL-5 melanoma): 2.74 µM | GI50 (SK-MEL-2 melanoma): 3.01 µM | TGI (SK-MEL-2 melanoma): 12.5 µM | GI50 (MDA-MB-231 breast): 2.35 µM | TGI (MDA-MB-231 breast): 8.54 µM | GI50 (HT29 colon): 1.11 µM | TGI (HT29 colon): 10.6 µM | GI50 (MDA-MB-435): 2.85 µM | TGI (MDA-MB-435): 11.5 µM

CCn1c(-c2ccc(OC(C)=O)cc2)c(C)c2cc(OC(C)=O)ccc21
TGI (M14 melanoma): 38.9 µM | TGI (SNB-19 CNS): > 100 µM | TGI (K-562 leukemia): 55.3 µM | TGI (TK-10 renal): 74.3 µM | TGI (NCI/ADR-RES ovarian): > 100 µM | TGI (SK-MEL-5 melanoma): 27.1 µM | TGI (SK-MEL-2 melanoma): 37.2 µM | TGI (MDA-MB-231 breast): 38.3 µM | TGI (HT29 colon): 89.6 µM | TGI (MDA-MB-435): 33.7 µM

O=C(CCC1OCCO1)Nc1cc(NCc2ccccc2)ccc1OCc1ccccc1
TGI (M14 melanoma): > 100 µM | TGI (SNB-19 CNS): > 100 µM | TGI (K-562 leukemia): > 100 µM | TGI (TK-10 renal): 83.4 µM | TGI (NCI/ADR-RES ovarian): > 100 µM | TGI (SK-MEL-5 melanoma): 35.3 µM | TGI (SK-MEL-2 melanoma): 49.7 µM | TGI (MDA-MB-231 breast): > 100 µM | TGI (HT29 colon): 96.6 µM | TGI (MDA-MB-435): 63.9 µM

COc1ccc(CCN2COc3c([C@@H](C)CCC=C(C)C)ccc(C)c3C2)cc1OC
GI50 (M14 melanoma): 1.69 µM | TGI (M14 melanoma): 3.18 µM | GI50 (SNB-19 CNS): 12.1 µM | TGI (SNB-19 CNS): 42.8 µM | GI50 (K-562 leukemia): 3.7 µM | TGI (K-562 leukemia): 93.5 µM | GI50 (TK-10 renal): 2.19 µM | TGI (TK-10 renal): 5.95 µM | GI50 (NCI/ADR-RES ovarian): 2.96 µM | TGI (NCI/ADR-RES ovarian): 9.51 µM | GI50 (SK-MEL-5 melanoma): 1.64 µM | TGI (SK-MEL-5 melanoma): 3.04 µM | GI50 (SK-MEL-2 melanoma): 1.88 µM | TGI (SK-MEL-2 melanoma): 3.82 µM | GI50 (MDA-MB-231 breast): 2.76 µM | TGI (MDA-MB-231 breast): 9.37 µM | GI50 (HT29 colon): 2.2 µM | TGI (HT29 colon): 5.73 µM | GI50 (MDA-MB-435): 3.11 µM | TGI (MDA-MB-435): 10.9 µM

CN(C)C(=O)[C@H](O)[C@H](Cc1ccccc1)NC(=O)c1cc2cc(Cl)ccc2[nH]1
GI50 (M14 melanoma): 23.2 µM | TGI (M14 melanoma): 67.6 µM | GI50 (SNB-19 CNS): 26.1 µM | TGI (SNB-19 CNS): > 100 µM | GI50 (K-562 leukemia): 25.8 µM | TGI (K-562 leukemia): > 100 µM | GI50 (TK-10 renal): 24.3 µM | TGI (TK-10 renal): 67 µM | GI50 (NCI/ADR-RES ovarian): 22.7 µM | TGI (NCI/ADR-RES ovarian): > 100 µM | GI50 (SK-MEL-5 melanoma): 15.6 µM | TGI (SK-MEL-5 melanoma): 30.6 µM | GI50 (SK-MEL-2 melanoma): 17.2 µM | TGI (SK-MEL-2 melanoma): 37.2 µM | GI50 (MDA-MB-231 breast): 19.6 µM | TGI (MDA-MB-231 breast): 52.8 µM | GI50 (HT29 colon): 20.3 µM | TGI (HT29 colon): 48.8 µM | GI50 (MDA-MB-435): 22.9 µM | TGI (MDA-MB-435): 70.1 µM
